{
  "source": "patent US20200237626A1",
  "about": "“Anti-Aging Corrective and Protective Formulation and Methods” (JAMRM, LLC, priority 2019, published 2020)",
  "system": "human skin cells (HEKn keratinocytes)",
  "assay": "Urban Dust induced lipid peroxidation",
  "assay_type": "cell-based",
  "conditions": "after 4 hours, test sample 5%",
  "procedure": "A third-party testing facility conducted tests to determine the effects of standardized Urban Dust particulates (NIST® SRM® 1649b) on the production of free radicals and lipid peroxidation in human skin cells (HEKn keratinocytes). Tests were conducted at 1 hour, 2 hours and 3 hours with varying concentrations of the test samples (1%, 3%, and 5%) (i.e. at one hour intervals) to measure intracellular reactive oxygen species and after 4 hours with test sample (5%) for lipid peroxidation. A fluorescent plate reader was utilized to measure a fluorescent dye incubated in all test conditions which measures intracellular reactive oxygen species and lipid peroxidation. The measurement is expressed as the mean relative fluorescent unit (RFU). FIG. 4B illustrates by bar graph the effects of the Urban Dust on tissue. Non-exposed tissue has immeasurably low RFU. The urban dust exposed cells have an increase in lipid peroxidation with 0.2 RFU.",
  "data": [
    {"compound": "Cc1c(C)c2c(c(C)c1O)CCC(C)(C(=O)O)O2", "note": "(centres unmarked) [Trolox]", "values": [
      {"measurement": "Lipid peroxidation (mean RFU)", "setting": "exposed to Urban Dust, Urban Dust alone 0.2 RFU", "value": "about 0.05 RFU"},
      {"measurement": "Reduction in lipid peroxidation", "setting": "vs Urban Dust exposed cells", "value": 67, "unit": "%"}
    ]}
  ]
}
